pEC50, pIC50: −log10 of the molar value.
Assays:
Format in all cases: cell-based
adenosine A1 receptor = target: T1, adenosine A1 receptor (Homo sapiens, UniProt P30542); test: Indirect determination of adenosine agonism by way of gene expression (luciferase), A1 cells; settings: stably transfected CHO cells; 1 μM forskolin; 50% inhibition of luciferase response
T1 construct: expressed in transfected cells; host or cells: CHO (Chinese Hamster Ovary)
T1 sequence (P30542 1-326): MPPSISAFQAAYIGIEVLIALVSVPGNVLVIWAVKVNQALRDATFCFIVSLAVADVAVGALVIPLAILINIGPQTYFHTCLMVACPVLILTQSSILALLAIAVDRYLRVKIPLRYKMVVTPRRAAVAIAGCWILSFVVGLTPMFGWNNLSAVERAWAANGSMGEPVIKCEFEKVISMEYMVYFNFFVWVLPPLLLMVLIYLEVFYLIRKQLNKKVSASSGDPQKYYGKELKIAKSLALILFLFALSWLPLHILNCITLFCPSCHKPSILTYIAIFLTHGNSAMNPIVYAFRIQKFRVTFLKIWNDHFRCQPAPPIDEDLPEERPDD
Text: (§1) B-1. Indirect Determination of the Adenosine Agonism by Way of Gene Expression
(§2) Cells of the CHO (Chinese Hamster Ovary) permanent line are transfected stably with the cDNA for the adenosine receptor subtypes A1, A2a and A2b. The adenosine A1 receptors are coupled to the adenylate cyclase by way of Gi proteins, while the adenosine A2a and A2b receptors are coupled by way of Gs proteins. In correspondence with this, the formation of cAMP in the cell is inhibited or stimulated, respectively. After that, expression of the luciferase is modulated by way of a cAMP-dependent promoter. The luciferase test is optimized, with the aim of high sensitivity and reproducibility, low variance and good suitability for implementation on a robot system, by varying several test parameters, such as cell density, duration of the growth phase and the test incubation, forskolin concentration and medium composition. The following test protocol is used for pharmacologically characterizing cells and for the robot-assisted substance screening:
(§3) The stock cultures are grown, at 37° C. and under 5% CO2, in DMEM/F12 medium containing 10% FCS (fetal calf serum) and in each case split 1:10 after 2-3 days. Test cultures are seeded in 384-well plates with 2000 cells per well and grown at 37° C. for approx. 48 hours. The medium is then replaced with a physiological sodium chloride solution (130 mM sodium chloride, 5 mM potassium chloride, 2 mM calcium chloride, 20 mM HEPES, 1 mM magnesium chloride hexahydrate, 5 mM sodium bicarbonate, pH 7.4). The substances to be tested, which are dissolved in DMSO, are pipetted into the test cultures (maximum final concentration of DMSO in the test mixture: 0.5%) in a dilution series of from 5×10^−11 M to 3×10^−6 M (final concentration). 10 minutes later, forskolin is added to the A1 cells and all the cultures are subsequently incubated at 37° C. for four hours. After that, 35 μl of a solution which is composed of 50% lysis reagent (30 mM disodium hydrogenphosphate, 10% glycerol, 3% TritonX100, 25 mM TrisHCl, 2 mM dithiotreitol (DTT), pH 7.8) and 50% luciferase substrate solution (2.5 mM ATP, 0.5 mM luciferin, 0.1 mM coenzyme A, 10 mM tricine, 1.35 mM magnesium sulfate, 15 mM DTT, pH 7.8) are added to the test cultures, which are shaken for approx. 1 minute and the luciferase activity is measured using a camera system. The EC50 values are determined, i.e., the concentrations at which 50% of the luciferase response is inhibited in the case of the A1 cell, and, respectively, 50% of the maximum stimulation with the corresponding substance is achieved in the case of the A2b and A2a cells. […] Pharmacol., 357, 1-9 (1998)).

adenosine A2a receptor = target: T2, adenosine A2a receptor (Homo sapiens, UniProt P29274); test: Indirect determination of adenosine agonism by way of gene expression (luciferase), A2a cells; settings: stably transfected CHO cells; 50% of maximum stimulation of luciferase
T2 construct: expressed in transfected cells; host or cells: CHO (Chinese Hamster Ovary)
T2 sequence (P29274 whole entry): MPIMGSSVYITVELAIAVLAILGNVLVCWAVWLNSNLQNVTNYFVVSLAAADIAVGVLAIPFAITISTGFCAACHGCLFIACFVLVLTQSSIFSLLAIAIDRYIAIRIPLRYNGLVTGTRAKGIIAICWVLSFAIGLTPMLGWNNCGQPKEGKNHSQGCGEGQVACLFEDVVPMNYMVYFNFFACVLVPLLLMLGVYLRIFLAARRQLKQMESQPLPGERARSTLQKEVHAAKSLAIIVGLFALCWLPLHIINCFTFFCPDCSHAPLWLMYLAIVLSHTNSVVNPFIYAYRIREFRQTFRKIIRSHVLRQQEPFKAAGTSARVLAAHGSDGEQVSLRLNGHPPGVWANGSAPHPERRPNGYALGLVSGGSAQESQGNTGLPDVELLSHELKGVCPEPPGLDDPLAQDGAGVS
Text: as §1, §2, §3

adenosine A2b receptor = target: T3, adenosine A2b receptor (Homo sapiens, UniProt P29275); test: Indirect determination of adenosine agonism by way of gene expression (luciferase), A2b cells; settings: stably transfected CHO cells; 50% of maximum stimulation of luciferase
T3 construct: expressed in transfected cells; host or cells: CHO (Chinese Hamster Ovary)
T3 sequence (P29275 1-332): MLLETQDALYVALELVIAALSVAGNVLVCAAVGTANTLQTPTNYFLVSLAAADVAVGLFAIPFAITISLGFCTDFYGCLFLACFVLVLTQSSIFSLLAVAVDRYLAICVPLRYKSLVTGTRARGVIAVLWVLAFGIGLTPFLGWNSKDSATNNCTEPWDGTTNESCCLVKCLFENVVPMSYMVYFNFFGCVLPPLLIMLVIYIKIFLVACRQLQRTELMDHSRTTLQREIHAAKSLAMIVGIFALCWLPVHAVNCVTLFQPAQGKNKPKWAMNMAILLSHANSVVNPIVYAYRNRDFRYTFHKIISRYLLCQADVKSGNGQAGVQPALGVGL
Text: as §1, §2, §3

[1] = target: T4, adenosine receptor subtype A2b (Homo sapiens, UniProt P29275); test: Indirect determination of adenosine antagonism via gene expression (CRE luciferase), A2b cells; settings: table after B-5; CHO K1 A2b cells; agonist 30 nM NECA
T4 construct: expressed in transfected cells; host or cells: CHO K1
T4 sequence (P29275 1-332): T3 sequence (P29275 1-332)
Text: (§4) B-5. Indirect Determination of Adenosine Antagonism Via Gene Expression
(§5) Cells of the permanent line CHO K1 (Chinese Hamster Ovary) are stably transfected with a reporter construct (CRE luciferase) and the cDNA for the adenosine receptor subtype A2a or A2b. A2a or A2b receptors are coupled via Gas proteins to the adenylate cyclase. Through receptor activation, the adenylate cyclase is activated and therefore the cAMP level in the cell increases. Via the reporter construct, a cAMP-dependent promoter, the change in the cAMP level is coupled to luciferase expression.
(§6) The permanent cell lines are cultured in DMEM/F12 (Cat.No. BE04-687Q; BioWhittaker) with 10% FCS (fetal calf serum) and various additives (20 ml/liter 1 M HEPES (Cat. No. 15630; Gibco), 20 ml/liter GlutaMAX (Cat. No. 35050-038, Gibco), 14 ml/liter MEM sodium pyruvate (Cat. No. 11360-039; Gibco) 10 ml/liter PenStrep (Cat. No. 15070-063; Gibco)) at 37° C. under 5% carbon dioxide, and split twice weekly.
(§7) For testing in the 384-well plate format, the cells are sown at 2000 cells/well in 25 μl/well sowing medium and cultured at 37° C. under 5% carbon dioxide until substance testing. […] The luciferase activity is detected with a luminescence reader. […]

[2] = target: T5, adenosine receptor subtype A1 (A1-Gα 16 fusion construct) (Homo sapiens, UniProt P30542); test: Indirect determination of adenosine antagonism via gene expression (NFAT luciferase), A1-Gα16 cells; settings: CHO K1 A1-Gα16 cells; agonist 25 nM CPA
T5 construct: "an A1-Gα 16 fusion construct
T5 sequence (P30542 1-326): T1 sequence (P30542 1-326)
Text: as §4
For determination of adenosine antagonism on the adenosine receptor subtype A1, once again CHO K1 cells are stably transfected, but this time with a Ca^2+-sensitive reporter construct (NFAT-TA-Luc; Clontech) and an A1-Gα 16 fusion construct. This receptor chimera is, in contrast to the native A1 receptor (Gαi-coupling), coupled to the phospholipase C. The luciferase is expressed here as a function of the cytosolic Ca^2+concentration.
as §6
as §7, with “testing. The A2a and A2b cells are sown, 24 h before substance testing, in medium with additives and 5% FCS, the base medium used for the A2a cells being DMEM/F12 and the base medium used for the A2b cells being OptiMEM (Cat. No. 31985-047; Gibco).” for “testing.”

[3] = target: T6, adenosine receptor subtype A2a (Homo sapiens, UniProt P29274); test: Indirect determination of adenosine antagonism via gene expression (CRE luciferase), A2a cells; settings: table after B-5; CHO K1 A2a cells; agonist 30 nM NECA
T6 construct: expressed in transfected cells; host or cells: CHO K1
T6 sequence (P29274 whole entry): as the sequence (P29274 whole entry) above
Text: as §4, §5, §6, §7

**Q.** Which results are given for `N#Cc1c(N)nc(SCc2csc(-c3ccc(Cl)cc3)n2)c(C#N)c1-c1cscn1` [Example 1, 2-Amino-6-([2-(4-chlorophenyl)-1,3-thiazol-4-yl]methylsulfanyl)-4-(1,3-thiazol-4-yl)pyridine-3,5-dicarbonitrile]?
**A.** EC50 (adenosine A1 receptor): 0.5 nM; pEC50 (adenosine A2a receptor): 5.52; pEC50 (adenosine A2b receptor): 5.80

**Q.** How did the EC50 (adenosine A1 receptor) turn out when `N#Cc1c(N)nc(SCc2coc(-c3ccc(Cl)cc3)n2)c(C#N)c1-c1cncs1` [Example 4, 2-Amino-6-([2-(4-chlorophenyl)-1,3-oxazol-4-yl]methylsulfanyl)-4-(1,3-thiazol-5-yl)pyridine-3,5-dicarbonitrile] was run?
**A.** 0.9 nM

**Q.** And the pEC50 (adenosine A2a receptor)?
**A.** 5.52

**Q.** What about the pEC50 (adenosine A2b receptor) of the same molecule?
**A.** 5.52

**Q.** How did the EC50 (adenosine A1 receptor) turn out when `N#Cc1c(N)nc(SCc2csc(-c3ccc(Cl)cc3)n2)c(C#N)c1-c1cnc[nH]1` [Example 8] was run?
**A.** 1.2 nM

**Q.** And the pEC50 (adenosine A2a receptor)?
**A.** 6.56

**Q.** And the pEC50 (adenosine A2b receptor)?
**A.** 6.15

**Q.** For `N#Cc1c(N)nc(SCc2coc(-c3ccc(Cl)cc3)n2)c(C#N)c1-c1cn[nH]c1` [Example 12], which EC50 (adenosine A1 receptor) is on record?
**A.** 2.4 nM

**Q.** And the pEC50 (adenosine A2a receptor)?
**A.** 5.52

**Q.** What about the pEC50 (adenosine A2b receptor) of the same molecule?
**A.** 5.52

**Q.** `CNC(=O)c1cc(CSc2nc(N)c(C#N)c(-c3cc[nH]n3)c2C#N)ccn1` [Example 15] was tested. Which pEC50 [1] did it give?
**A.** 7.40

**Q.** What about the pIC50 [2] of the same molecule?
**A.** 9.30

**Q.** And the pEC50 [3]?
**A.** ≤ 4.30

**Q.** For `N#Cc1c(SCc2csc(-c3ccc(Cl)cc3)n2)nc(N2CC(O)C2)c(C#N)c1-c1cncs1` [Example 16, 2-([2-(4-Chlorophenyl)-1,3-thiazol-4-yl]methylsulfanyl)-6-(3-hydroxyazetidin-1-yl)-4-(1,3-thiazol-5-yl)pyridine-3,5-dicarbonitrile], which EC50 (adenosine A1 receptor) is on record?
**A.** 0.4 nM

**Q.** What about the pEC50 (adenosine A2a receptor) of the same molecule?
**A.** 5.52

**Q.** And the pEC50 (adenosine A2b receptor)?
**A.** 5.52

**Q.** `N#Cc1c(SCc2coc(-c3ccc(Cl)cc3)n2)nc(N2CC(O)C2)c(C#N)c1-c1nccs1` [Example 20] was tested. Which EC50 (adenosine A1 receptor) did it give?
**A.** 0.5 nM

**Q.** And the pEC50 (adenosine A2a receptor)?
**A.** 5.52

**Q.** And the pEC50 (adenosine A2b receptor)?
**A.** 5.74

**Q.** How did the EC50 (adenosine A1 receptor) turn out when `N#Cc1c(NC[C@H](O)CO)nc(SCc2csc(-c3ccc(Cl)cc3)n2)c(C#N)c1-c1nccs1` [Example 21] was run?
**A.** 0.5 nM

**Q.** And the pEC50 (adenosine A2a receptor)?
**A.** 6.42

**Q.** What about the pEC50 (adenosine A2b receptor) of the same molecule?
**A.** 5.52

**Q.** With `N#Cc1c(SCc2csc(-c3ccc(Cl)cc3)n2)nc(N2CC(O)C2)c(C#N)c1-c1nccs1` [Example 22] as the molecule, how does the EC50 (adenosine A1 receptor) read?
**A.** 0.6 nM

**Q.** And the pEC50 (adenosine A2a receptor)?
**A.** 5.61

**Q.** What about the pEC50 (adenosine A2b receptor) of the same molecule?
**A.** 5.89

**Q.** `N#Cc1c(SCc2csc(-c3ccc(Cl)cc3)n2)nc(N2CC(O)C2)c(C#N)c1-c1cc[nH]n1` [Example 27] was tested. Which EC50 (adenosine A1 receptor) did it give?
**A.** 1.1 nM

**Q.** What about the pEC50 (adenosine A2a receptor) of the same molecule?
**A.** 5.19

**Q.** What about the pEC50 (adenosine A2b receptor) of the same molecule?
**A.** 5.19

**Q.** With `CNC(=O)c1cc(CSc2nc(NCCO)c(C#N)c(-c3cc[nH]n3)c2C#N)ccn1` [Example 29] as the molecule, how does the pEC50 [1] read?
**A.** 6.57

**Q.** And the pIC50 [2]?
**A.** 8.44

**Q.** `CC(O)Cn1ccc(-c2c(C#N)c(N)nc(SCc3csc(-c4ccc(Cl)cc4)n3)c2C#N)n1` (centres unmarked) [Example 30, 2-Amino-6-([2-(4-chlorophenyl)-1,3-thiazol-4-yl]methylsulfanyl)-4-[1-(2-hydroxypropyl)-1H-pyrazol-3-yl]pyridine-3,5-dicarbonitrile] was tested. Which EC50 (adenosine A1 receptor) did it give?
**A.** 1.9 nM

**Q.** What about the pEC50 (adenosine A2a receptor) of the same molecule?
**A.** 5.70

**Q.** And the pEC50 (adenosine A2b receptor)?
**A.** 5.85

**Q.** What does the source list for `N#Cc1c(N)nc(SCc2csc(-c3ccc(Cl)cc3)n2)c(C#N)c1-c1cccs1` [Example 32, 2-Amino-6-({[2-(4-chlorophenyl)-1,3-thiazol-4-yl]methyl}sulfanyl)-4-thiophen-2-ylpyridine-3,5-dicarbonitrile]?
**A.** EC50 (adenosine A1 receptor): 0.3 nM; pEC50 (adenosine A2a receptor): 6.74; pEC50 (adenosine A2b receptor): 7.47

**Q.** Which EC50 (adenosine A1 receptor) does the source give for `N#Cc1c(N)nc(SCc2cccc(C(N)=O)c2)c(C#N)c1-c1cccs1` [Example 37, 3-({[6-Amino-3,5-dicyano-4-(2-thienyl)pyridin-2-yl]thio}methyl)benzamide] here?
**A.** 0.05 nM

**Q.** What about the pEC50 (adenosine A2a receptor) of the same molecule?
**A.** 7.06

**Q.** What about the pEC50 (adenosine A2b receptor) of the same molecule?
**A.** 7.55

**Q.** For `N#Cc1c(SCc2csc(-c3ccc(Cl)cc3)n2)nc(N2CC[C@@H](O)C2)c(C#N)c1-c1cncs1` [Example 47, 2-({[2-(4-Chlorophenyl)-1,3-thiazol-4-yl]methyl}sulfanyl)-6-[(3R)-3-hydroxypyrrolidin-1-yl]-4-(1,3-thiazol-5-yl)pyridine-3,5-dicarbonitrile], which EC50 (adenosine A1 receptor) is on record?
**A.** 0.5 nM

**Q.** And the pEC50 (adenosine A2a receptor)?
**A.** 5.52

**Q.** And the pEC50 (adenosine A2b receptor)?
**A.** 5.52
